Laboratory results: patent US20100143452A1, “POLYPHENOL CONTAINING COMPOSITIONS” (Universiteit Utrecht Holding B.V., priority 2006, published 2010)

Key:
[1] = system: B16 murine melanoma and C26 murine colon carcinoma; assay: tumor growth in B16 or C26-tumor bearing mice; format: in vivo; details: i.v. 20 mg/kg, between day 7 and day 14, after a second injection at day 7
Description: B16 murine melanoma and C26 murine colon carcinoma cells were cultured at 37° C. in a 5% CO2-containing humidified atmosphere in DMEM medium (Gibco, Breda, The Netherlands) containing 10% (v/v) fetal calf serum supplemented with 2 mM L-glutamine, 100 IU/ml penicillin, 100 microgram/ml streptomycin and 0.25 microgram/ml amphotericin B (Gibco). Male Balb/c and C57B1/6 mice (6-8 weeks of age) were obtained from Charles River, kept in standard housing with standard rodent chow and water available ad libitum, and a 12 h light/dark cycle. Experiments were performed according to national regulations and approved by the local animal experiments ethical committee. Mice received a single intravenous injection of an indicated dose of free caffeic acid or liposomal caffeic acid prepared in Example 1 at the time when the tumor became palpable. At 7 days after treatment, tumor size was measured and tumor volume calculated according to the equation V=0.52×a^2×b, wherein a is the smallest and b is the largest superficial diameter. […] Tumor size was measured regularly, and tumor volume was calculated as described above. For the statistical analysis, data were analysed by one-way ANOVA with Dunnett's post test using GraphPad InStat version 3.05 for Windows, GraphPad Software (San Diego, USA). […] Spearman rank correlation coefficient was calculated to identify dose-response. […]

cells = details: 80 micomoles of naringenin per liter, for 24 hours; cited from earlier work
[2] = oral ingestion, best case scenario; cited from earlier work
[3] = dietary (ingested) polyphenols; cited from earlier work

O=C(O)/C=C/c1ccc(O)c(O)c1 [free caffeic acid, caffeic acid]
effect on tumor volume [1]: did not reduce tumor volume

O=C1C[C@@H](c2ccc(O)cc2)Oc2cc(O)cc(O)c21 [naringenin]
reduction of hydroxyl damage to the DNA (cells): 24%
ingested amount absorbed in the human gastrointestinal tract [2]: ≤ 15%

O=c1c(O)c(-c2ccc(O)c(O)c2)oc2cc(O)cc(O)c12 [quercetin]
bioavailability [3]: 1-5%
